# Results reported in US8846698B2, “Pyrrolo[2,3-d]pyrimidine tropomysin-related kinase inhibitors” (Pfizer Limited, priority 2011, dated 2014).
# Read-outs that look alike come from different tables or passages of the source.
# Legend:
# [1] = molecular target: T1, TRKA (Homo sapiens (Human), UniProt P04629); assay: Isolated TRK enzyme assay (HTRF KinEASE-TK), TRKA; type: biochemical; settings: isolated TRKA enzyme; read-out: TrkA enzyme potency
# Target sequence in this assay (P04629 441-796): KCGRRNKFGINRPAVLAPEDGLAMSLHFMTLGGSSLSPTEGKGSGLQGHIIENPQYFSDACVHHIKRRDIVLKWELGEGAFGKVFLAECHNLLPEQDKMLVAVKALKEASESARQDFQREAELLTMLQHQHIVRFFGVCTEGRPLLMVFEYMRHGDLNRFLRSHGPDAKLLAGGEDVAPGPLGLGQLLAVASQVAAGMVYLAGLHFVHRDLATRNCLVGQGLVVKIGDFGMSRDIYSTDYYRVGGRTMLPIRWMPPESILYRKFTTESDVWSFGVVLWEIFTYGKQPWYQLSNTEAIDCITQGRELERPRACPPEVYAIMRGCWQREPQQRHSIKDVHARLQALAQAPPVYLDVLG
# [2] = molecular target: T2, TRKB (Homo sapiens (Human), UniProt Q16620); assay: cell-based; settings: TrkB cell potency, TRKB PathHunter cell line
# T2 sequence (Q16620 32-822 limits assumed): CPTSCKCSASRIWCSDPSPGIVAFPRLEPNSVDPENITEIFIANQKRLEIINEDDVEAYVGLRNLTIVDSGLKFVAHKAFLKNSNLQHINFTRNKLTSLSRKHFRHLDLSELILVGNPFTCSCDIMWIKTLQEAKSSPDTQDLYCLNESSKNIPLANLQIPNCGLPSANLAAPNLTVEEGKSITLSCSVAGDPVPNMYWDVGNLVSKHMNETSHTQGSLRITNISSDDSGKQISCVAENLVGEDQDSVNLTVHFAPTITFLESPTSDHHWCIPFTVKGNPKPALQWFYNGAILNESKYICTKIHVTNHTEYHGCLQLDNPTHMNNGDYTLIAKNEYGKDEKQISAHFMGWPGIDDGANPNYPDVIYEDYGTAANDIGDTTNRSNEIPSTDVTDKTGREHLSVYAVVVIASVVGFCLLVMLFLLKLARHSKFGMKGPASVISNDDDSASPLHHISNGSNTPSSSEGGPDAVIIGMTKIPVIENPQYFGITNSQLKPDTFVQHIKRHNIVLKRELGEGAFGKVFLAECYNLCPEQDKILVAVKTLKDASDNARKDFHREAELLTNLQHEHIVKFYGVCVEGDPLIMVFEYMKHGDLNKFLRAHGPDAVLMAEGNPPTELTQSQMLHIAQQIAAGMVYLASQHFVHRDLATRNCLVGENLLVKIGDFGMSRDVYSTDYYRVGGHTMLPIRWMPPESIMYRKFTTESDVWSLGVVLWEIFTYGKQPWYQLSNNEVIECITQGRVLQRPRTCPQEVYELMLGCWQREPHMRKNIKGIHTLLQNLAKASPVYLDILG
# Experimental: (§1) After the Detection Reagent addition, plates are covered and incubated at room temperature for 60 minutes. […] Test compound data are expressed as percentage inhibition defined by HPE and ZPE values for each plate. Percentage inhibition in the presence of test compound is plotted against compound concentration on a log scale to determine an IC50 from the resultant sigmoid curve. Cell Based Assays were carried out using Cell lines from DiscoveRx utilising their PathHunter technology and reagents in an antagonist assay:
# (§2) The assays are based upon DiscoveRx's proprietary Enzyme Fragment Complementation (EFC) technology. In the case of the TRK cell lines, the enzyme acceptor (EA) protein is fused to a SH2 protein and the TRK receptor of interest has been tagged with a Prolink tag.
# (§3) Upon neurotrophin binding, the TRK receptor becomes phosphorylated, and the tagged SH2 protein binds.
# (§4) This means that the IC50 is a good measure of affinity and should be unaffected by concentration neurotrophin stimulant.
# (§5) Cryopreserved PathHunter cells are used from either in-house produced batches or bulk batches bought directly from DiscoveRx. Cryopreserved cells are resuscitated, spun 1000 rpm for 4 min to remove freezing media, and resuspended in MEM+0.5% horse serum (both Invitrogen) to 5e^5 cells/ml. The cells are then plated using a Multidrop into Greiner white tissue culture treated plates at 20 ul/well and incubated for 24 h at 37° C., 5% CO2, high humidity. On the day of the assay, the cell plates are allowed to cool to room temperature for 30 min prior to the assay.
# (§6) Plates containing 1 ul of serially diluted compound, standard and HPE/ZPE are diluted 1/66 in assay buffer (PBS minus Ca^2+, minus Mg^2+ with 0.05% pluronic F127) using a Wellmate. […] The plates are left at room temperature for a further 2 hours before addition of 10 ul of the DiscoveRx PathHunter detection reagent (made up by adding 1 part Galacton Star, 5 parts Emerald II and 19 parts Cell Assay Buffer as per the manufacturer's instructions).
# (§7) After reagent addition, plates are covered and incubated at room temperature for 60 minutes. Luminescence signal is read using an Envision. Test compound data are expressed as percentage inhibition defined by HPE and ZPE values for each plate. Percentage inhibition in the presence of test compound is plotted against compound concentration on a log scale to determine an […] from the resultant sigmoid curve.
# [3] = molecular target: T1, TRKA; assay: Cell based DiscoveRx PathHunter antagonist assay, TRKA cell line; settings: read-out: TrkA cell potency
# Experimental: as §1, §2, §3, §4, §5, §6, §7
# Target sequence in this assay (P04629 33-796): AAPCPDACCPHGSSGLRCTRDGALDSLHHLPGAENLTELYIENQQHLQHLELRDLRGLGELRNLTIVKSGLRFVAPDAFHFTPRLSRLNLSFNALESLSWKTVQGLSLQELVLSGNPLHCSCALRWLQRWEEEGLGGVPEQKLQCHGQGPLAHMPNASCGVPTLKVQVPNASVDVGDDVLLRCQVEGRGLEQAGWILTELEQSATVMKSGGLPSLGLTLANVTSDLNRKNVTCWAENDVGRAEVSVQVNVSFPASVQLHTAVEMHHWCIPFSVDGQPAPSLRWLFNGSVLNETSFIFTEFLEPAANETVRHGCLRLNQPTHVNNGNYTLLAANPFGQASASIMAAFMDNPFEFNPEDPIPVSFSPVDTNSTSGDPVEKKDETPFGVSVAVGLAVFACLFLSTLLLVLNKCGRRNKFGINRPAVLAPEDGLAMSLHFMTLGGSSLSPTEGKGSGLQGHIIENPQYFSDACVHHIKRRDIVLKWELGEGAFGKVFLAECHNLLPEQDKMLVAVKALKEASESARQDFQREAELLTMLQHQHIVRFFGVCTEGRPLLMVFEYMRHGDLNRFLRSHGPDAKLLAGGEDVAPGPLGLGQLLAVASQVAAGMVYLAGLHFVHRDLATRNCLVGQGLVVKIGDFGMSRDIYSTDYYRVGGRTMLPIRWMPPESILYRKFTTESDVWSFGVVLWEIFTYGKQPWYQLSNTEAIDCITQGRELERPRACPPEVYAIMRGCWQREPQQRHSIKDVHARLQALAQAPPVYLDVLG
# [4] = molecular target: T2, TRKB; assay: biochemical
# [5] = molecular target: MDR1 (Homo sapiens (Human), UniProt P08183); assay: MDCK-MDR1 assay (in vitro brain penetration); type: in vitro ADME; settings: human; for Papp B→A: read-out: MDCK MDR1 Papp BA; for Papp A→B: MDCK-MDR1, A to B, read-out: MDCK MDR1 Papp AB
# Sequence of MDR1 (P08183 whole entry): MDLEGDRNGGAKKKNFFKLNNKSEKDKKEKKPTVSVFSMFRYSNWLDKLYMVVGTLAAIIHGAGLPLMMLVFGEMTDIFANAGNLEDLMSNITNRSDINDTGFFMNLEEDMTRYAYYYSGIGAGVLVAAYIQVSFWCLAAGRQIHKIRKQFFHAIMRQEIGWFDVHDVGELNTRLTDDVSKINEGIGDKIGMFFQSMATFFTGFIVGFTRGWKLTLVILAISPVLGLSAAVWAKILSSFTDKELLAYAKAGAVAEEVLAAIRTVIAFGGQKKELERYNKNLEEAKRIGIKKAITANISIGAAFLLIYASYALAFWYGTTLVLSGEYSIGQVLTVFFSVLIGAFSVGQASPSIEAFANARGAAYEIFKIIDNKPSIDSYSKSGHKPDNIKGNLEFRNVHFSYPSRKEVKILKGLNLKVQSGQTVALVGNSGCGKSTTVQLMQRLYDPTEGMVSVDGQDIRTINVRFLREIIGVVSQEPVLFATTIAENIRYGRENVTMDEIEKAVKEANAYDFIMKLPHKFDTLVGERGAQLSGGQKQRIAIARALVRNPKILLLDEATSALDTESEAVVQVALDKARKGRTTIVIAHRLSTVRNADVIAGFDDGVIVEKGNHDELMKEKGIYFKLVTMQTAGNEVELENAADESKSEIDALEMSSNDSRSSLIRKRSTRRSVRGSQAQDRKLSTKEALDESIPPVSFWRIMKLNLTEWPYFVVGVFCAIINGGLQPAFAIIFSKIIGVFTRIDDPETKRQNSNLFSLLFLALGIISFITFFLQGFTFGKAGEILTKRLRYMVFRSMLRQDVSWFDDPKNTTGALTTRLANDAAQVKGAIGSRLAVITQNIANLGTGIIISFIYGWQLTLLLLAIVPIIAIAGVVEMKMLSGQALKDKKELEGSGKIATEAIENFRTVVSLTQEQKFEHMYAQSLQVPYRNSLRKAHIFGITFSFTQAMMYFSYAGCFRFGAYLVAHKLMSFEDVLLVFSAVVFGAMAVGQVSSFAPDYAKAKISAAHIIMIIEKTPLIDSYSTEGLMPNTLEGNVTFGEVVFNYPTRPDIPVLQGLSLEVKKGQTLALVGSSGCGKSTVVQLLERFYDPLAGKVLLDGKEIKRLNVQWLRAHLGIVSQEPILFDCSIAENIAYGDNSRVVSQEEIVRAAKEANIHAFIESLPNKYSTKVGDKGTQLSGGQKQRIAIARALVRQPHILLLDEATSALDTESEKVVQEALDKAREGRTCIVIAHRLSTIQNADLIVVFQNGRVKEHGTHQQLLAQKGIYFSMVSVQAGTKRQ
# From the text: MDCK-MDR1: MDCK-MDR1 data were collected according to the method described in “Are MDCK Cells Transfected with the Human MDR1 Gene a Good Model of the Human Intestinal Mucosa?”
# http://www.springerlink.com/content/qfhqlqbr4fnp3 khf/fulltext.pdf
# [6] = isolated TRKB enzyme, read-out: TrkB enzyme potency
Structure (SMILES),IC50 [1] [µM],IC50 [2] [µM],IC50 [3] [µM],"IC50 [4, 6] [µM]","Papp B→A ([5]; MDCK-MDR1, MDCK-MDR1, B to A) [×10⁻⁶ cm/s]",Papp A→B [5] [×10⁻⁶ cm/s],IC50 ([4]; TrkB enzyme potency) [µM],"Papp B→A ([5]; MDCK-MDR1, B to A) [×10⁻⁶ cm/s]"
"CC(C)(C)n1cc(C(=O)c2cncc(NC(=O)Cn3cc(C4CC4)cn3)c2)c2cncnc21 [Example 7, N-{5-[(7-tert-butyl-7H-pyrrolo[2,3-d]pyrimidin-5-yl)carbonyl]pyridin-3-yl}-2-(4-cyclopropyl-1H-pyrazol-1-yl)acetamide]",0.011,0.0008,0.0021,0.041,20,5.6,,
"C[C@@H](CO)n1cc(C(=O)c2cncc(NC(=O)Cn3cc(C(F)(F)F)nn3)c2)c2cncnc21 [Example 13, N-[5-({7-[(1S)-2-hydroxy-1-methylethyl]-7H-pyrrolo[2,3-d]pyrimidin-5-yl}carbonyl)pyridin-3-yl]-2-[4-(trifluoromethyl)-1H-1,2,3-triazol-1-yl]acetamide]",0.02,0.184,1.13,0.449,1,< 1,,
"C[C@@H](CO)n1cc(C(=O)c2cncc(NC(=O)Cn3nc4ccccc4n3)c2)c2cncnc21 [Example 15, 2-(2H-benzotriazol-2-yl)-N-[5-({7-[(1S)-2-hydroxy-1-methylethyl]-7H-pyrrolo[2,3-d]pyrimidin-5-yl}carbonyl)pyridin-3-yl]acetamide]",0.017,0.04,0.143,,,< 1,0.514,15
"C[C@H](CO)n1cc(C(=O)c2cncc(NC(=O)Cc3ccc(F)cn3)c2)c2cncnc21 [Example 19, 2-(5-fluoropyridin-2-yl)-N-[5-({7-[(1R)-2-hydroxy-1-methylethyl]-7H-pyrrolo[2,3-d]pyrimidin-5-yl}carbonyl)pyridin-3-yl]acetamide]",0.249,0.206,1.84,,,< 1,5.48,8.5
"C[C@H](CO)n1cc(C(=O)c2cncc(NC(=O)Cc3ccc(C(F)(F)F)cc3)c2)c2cncnc21 [Example 20, N-[5-({7-[(1R)-2-hydroxy-1-methylethyl]-7H-pyrrolo[2,3-d]pyrimidin-5-yl}carbonyl)pyridin-3-yl]-2-[4-(trifluoromethyl)phenyl]acetamide]",0.014,0.019,0.022,0.635,17,< 1,,
"CC(CO)n1cc(C(=O)c2cncc(NC(=O)Cn3cc(C4CC4)cn3)c2)c2cncnc21 (stereo not drawn) [Example 25, 2-(4-Cyclopropyl-1H-pyrazol-1-yl)-N-(5-{[7-(2-hydroxy-1-methylethyl)-7H-pyrrolo[2,3-d]pyrimidin-5-yl]carbonyl}pyridin-3-yl)acetamide]",0.024,0.019,0.065,0.433,13,< 1,,
"Cc1cc(C(F)(F)F)nn1CC(=O)Nc1cncc(C(=O)c2cn(C(C)(C)CO)c3nc(N)ncc23)c1 [Example 47, N-(5-{[2-Amino-7-(2-hydroxy-1,1-dimethylethyl)-7H-pyrrolo[2,3-d]pyrimidin-5-yl]carbonyl}pyridin-3-yl)-2-[5-methyl-3-(trifluoromethyl)-1H-pyrazol-1-yl]acetamide]",0.025,0.013,0.035,0.027,21,< 1,,

# The next compounds have a lower IC50 [1] than those just listed; values first:
IC50 [1] [µM],IC50 [2] [µM],IC50 [3] [µM],"IC50 [4, 6] [µM]","Papp B→A ([5]; MDCK-MDR1, MDCK-MDR1, B to A) [×10⁻⁶ cm/s]",Papp A→B [5] [×10⁻⁶ cm/s],IC50 ([4]; TrkB enzyme potency) [µM],"Papp B→A ([5]; MDCK-MDR1, B to A) [×10⁻⁶ cm/s]",Structure (SMILES)
0.0089,0.037,0.103,0.223,5.3,< 1,,,"CC(CO)n1cc(C(=O)c2cncc(NC(=O)Cc3ccc(Cl)cn3)c2)c2cnc(N)nc21 (single isomer, unassigned) [Example 35, N-(5-{[2-amino-7-(2-hydroxy-1-methylethyl)-7H-pyrrolo[2,3-d]pyrimidin-5-yl]carbonyl}pyridin-3-yl)-2-(5-chloropyridin-2-yl)acetamide]"
0.0092,0.022,0.068,0.547,3.1,< 1,,,"C[C@@H](CO)n1cc(C(=O)c2cncc(NC(=O)Cn3ccc(C(F)(F)F)n3)c2)c2cncnc21 [Example 12, N-[5-({7-[(1S)-2-hydroxy-1-methylethyl]-7H-pyrrolo[2,3-d]pyrimidin-5-yl}carbonyl)pyridin-3-yl]-2-[3-(trifluoromethyl)-1H-pyrazol-1-yl]acetamide]"
0.0049,0.0019,0.0027,,,< 1,0.075,20,"CC(C)(CO)n1cc(C(=O)c2cncc(NC(=O)Cc3ccc(Cl)cc3)c2)c2cncnc21 [Example 28, 2-(4-chlorophenyl)-N-(5-{[7-(2-hydroxy-1,1-dimethylethyl)-7H-pyrrolo[2,3-d]pyrimidin-5-yl]carbonyl}pyridin-3-yl)acetamide]"
0.0028,0.004,0.0058,,,1.3,0.068,23,"CC(C)(CO)n1cc(C(=O)c2cncc(NC(=O)Cc3ccc(Cl)cn3)c2)c2cncnc21 [Example 29, 2-(5-chloropyridin-2-yl)-N-(5-{[7-(2-hydroxy-1,1-dimethylethyl)-7H-pyrrolo[2,3-d]pyrimidin-5-yl]carbonyl}pyridin-3-yl)acetamide]"
0.004,0.0075,0.011,,,< 1,0.098,15,"CC(C)(CO)n1cc(C(=O)c2cncc(NC(=O)Cn3ccc(C(F)(F)F)n3)c2)c2cncnc21 [Example 30, N-(5-{[7-(2-hydroxy-1,1-dimethylethyl)-7H-pyrrolo[2,3-d]pyrimidin-5-yl]carbonyl}pyridin-3-yl)-2-[3-(trifluoromethyl)-1H-pyrazol-1-yl]acetamide]"
0.0057,0.0016,0.002,0.096,24,1,,,"CC(C)(CO)n1cc(C(=O)c2cncc(NC(=O)Cn3cc(C4CC4)cn3)c2)c2cncnc21 [Example 33, 2-(4-cyclopropyl-1H-pyrazol-1-yl)-N-(5-{[7-(2-hydroxy-1,1-dimethylethyl)-7H-pyrrolo[2,3-d]pyrimidin-5-yl]carbonyl}pyridin-3-yl)acetamide]"
0.0066,0.0021,0.01,0.143,24,< 1,,,"CC(C)(CO)n1cc(C(=O)c2cncc(NC(=O)Cc3ccc(F)cc3F)c2)c2cnc(N)nc21 [Example 50, N-(5-{[2-amino-7-(2-hydroxy-1,1-dimethylethyl)-7H-pyrrolo[2,3-d]pyrimidin-5-yl]carbonyl}pyridin-3-yl)-2-(2,4-difluorophenyl)acetamide]"
0.007,0.0045,0.012,,,< 1,0.179,20,"CC(C)(CO)n1cc(C(=O)c2cncc(NC(=O)Cn3nc4ccccc4n3)c2)c2cnc(N)nc21 [Example 55, N-(5-{[2-Amino-7-(2-hydroxy-1,1-dimethylethyl)-7H-pyrrolo[2,3-d]pyrimidin-5-yl]carbonyl}pyridin-3-yl)-2-(2H-benzotriazol-2-yl)acetamide]"
0.0095,0.517,0.451,,,1.1,0.962,1,"CC(C)(CO)n1cc(C(=O)c2cncc(NC(=O)Cn3cc(C4CC4)nn3)c2)c2cnc(N)nc21 [Example 56, N-(5-{[2-Amino-7-(2-hydroxy-1,1-dimethylethyl)-7H-pyrrolo[2,3-d]pyrimidin-5-yl]carbonyl}pyridin-3-yl)-2-(4-cyclopropyl-1H-1,2,3-triazol-1-yl)acetamide]"
